Test results: publication PMC11844072, “Novel 5,6-dichlorobenzimidazole derivatives as dual BRAFWT and BRAFV600E inhibitors: design, synthesis, anti-cancer activity and molecular dynamics simulations” (BMC Chemistry, 2025)

Key:
Experiment in all cases: NCI 60 single concentration growth inhibition
Type in all cases: cell-based, human
NCI-H460 = conditions: NCI-H460, Non-small cell lung cancer; for GI%: 10 μM; for inhibition at 10 µM: Homo sapiens, read-out: GI%
Method in brief: (§1)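 Single-dose screen at 10 µM across the NCI-60 panel, then five concentrations (10-fold or ½ log dilutions) for selected compounds. Cells in RPMI 1640, 5% FBS, 2 mM L-glutamine, preincubated 24 h, then drug exposure 48 h at 37 °C. TCA fixation, SRB stain read at 515 nm; percent growth calculated against time-zero and untreated controls.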

IGROV1 = conditions: IGROV1, Ovarian cancer, 10 μM
Method in brief: as §1

NCI/ADR-RES = conditions: Ovarian cancer; for GI%: 10 μM; for inhibition at 10 µM: Homo sapiens, read-out: GI%
Method in brief: as §1

HOP-92 = conditions: HOP-92, Non-small cell lung cancer; for GI%: 10 μM; for inhibition at 10 µM: Homo sapiens, read-out: GI%
Method in brief: as §1

SNB-75 = conditions: SNB-75, CNS cancer, 10 μM
Method in brief: as §1

COLO 205 = conditions: COLO 205, Colon cancer; for GI%: 10 μM; for inhibition at 10 µM: Homo sapiens, read-out: GI%
Method in brief: as §1

K-562 = conditions: for GI%: K-562, Leukemia, 10 μM; for inhibition at 10 µM: Homo sapiens, K562, K-562, Leukemia, read-out: GI%
Method in brief: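 Growth measured by sulforhodamine B protein staining (515 nm) after 48 h drug exposure at 37 °C, following 24 h plating in RPMI 1640 with 5% FBS and 2 mM L-glutamine. Compounds first tested at one 10 µM dose, then five-dose series (10-fold or ½ log steps); percent growth relative to time-zero and untreated wells.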

SNB-19 = conditions: SNB-19, CNS cancer; for GI%: 10 μM; for inhibition at 10 µM: Homo sapiens, read-out: GI%
Method in brief: as §1

HCC-2998 = conditions: HCC-2998, Colon cancer; for GI%: 10 μM; for inhibition at 10 µM: Homo sapiens, read-out: GI%
Method in brief: as §1

SW-620 = conditions: SW-620, Colon cancer; for GI%: 10 μM; for inhibition at 10 µM: Homo sapiens, read-out: GI%
Method in brief: as §1

NCI-H322M = conditions: Non-small cell lung cancer, 10 μM
Method in brief: as §1

UO-31 = conditions: UO-31, Renal cancer, 10 μM
Method in brief: as §1

MALME-3M = conditions: Melanoma, 10 μM
Method in brief: as §1

Row | Molecule | GI% (IGROV1) | GI% (SNB-75) | GI% (NCI-H322M) | GI% (UO-31) | GI% (MALME-3M) | inhibition at 10 µM (NCI-H460) | inhibition at 10 µM (NCI/ADR-RES) | inhibition at 10 µM (HOP-92) | inhibition at 10 µM (COLO 205) | inhibition at 10 µM (K-562) | inhibition at 10 µM (SNB-19) | inhibition at 10 µM (HCC-2998) | inhibition at 10 µM (SW-620) | also measured
1 | 2-(4-((2-(2-(5,6-Dichloro-2-(4-methoxyphenyl)-1H-benzo[d]imidazol-1-yl)acetyl)hydrazono)methyl) -2-methoxyphenoxy)acetic acid [Compound 10m] | – (GI% < 5%) | – (GI% < 5%) | – (GI% < 5%) | 8.63% | – (GI% < 5%) | – | – | – | – | – | – | – | – | GI% (NCI-H460): – (GI% < 5%); GI% (NCI/ADR-RES): – (GI% < 5%); GI% (HOP-92): – (GI% < 5%); GI% (COLO 205): – (GI% < 5%); GI% (K-562): – (GI% < 5%); GI% (SNB-19): – (GI% < 5%); GI% (HCC-2998): – (GI% < 5%); GI% (SW-620): – (GI% < 5%)
2 | 2-(5-((2-(2-(5,6-Dichloro-2-(4-methoxyphenyl)-1H-benzo[d]imidazol-1-yl)acetyl)hydrazono)methyl)-2-methoxyphenoxy)acetic acid [Compound 10n] | – (GI% < 5%) | – (GI% < 5%) | – (GI% < 5%) | 13.00% | – (GI% < 5%) | – | – | – | – | – | – | – | – | GI% (NCI-H460): – (GI% < 5%); GI% (NCI/ADR-RES): – (GI% < 5%); GI% (HOP-92): – (GI% < 5%); GI% (COLO 205): – (GI% < 5%); GI% (K-562): – (GI% < 5%); GI% (SNB-19): – (GI% < 5%); GI% (HCC-2998): – (GI% < 5%); GI% (SW-620): – (GI% < 5%)
3 | 3-(4-((2-(2-(5,6-Dichloro-2-(4-methoxyphenyl)-1H-benzo[d]imidazol-1-yl)acetyl)hydrazono)methyl)phenoxy)propanoic acid [Compound 10i] | – (GI% < 5%) | 8.33% | – (GI% < 5%) | 25.68% | – (GI% < 5%) | – | – | – | – | – | – | – | – | GI% (NCI-H460): – (GI% < 5%); GI% (NCI/ADR-RES): – (GI% < 5%); GI% (HOP-92): 6.61%; GI% (COLO 205): – (GI% < 5%); GI% (K-562): 10.25%; GI% (SNB-19): 5.79%; GI% (HCC-2998): – (GI% < 5%); GI% (SW-620): – (GI% < 5%)
4 | COc1ccc(-c2nc3cc(Cl)c(Cl)cc3n2CC(=O)NN=Cc2cccc(O)c2)cc1 [Compound 10a, 2-(5,6-Dichloro-2-(4-methoxyphenyl)-1H-benzo[d]imidazol-1-yl)-N'-(3-hydroxybenzylidene)acetohydrazide] | – | – | – | – | – | 46.8% | 44.5% | 23.8% | 46% | 66% | 50.4% | 35.9% | 31.7% | –
5 | COc1ccc(-c2nc3cc(Cl)c(Cl)cc3n2CC(=O)NN=Cc2ccc(O)cc2)cc1 [Compound 10b, 2-(5,6-Dichloro-2-(4-methoxyphenyl)-1H-benzo[d]imidazol-1-yl)-N'-(4-hydroxybenzylidene)acetohydrazide] | – | – | – | – | – | 49.7% | 28.5% | 40% | 9.38% | 47.5% | 39% | 21.4% | 18.6% | –
6 | COc1ccc(-c2nc3cc(Cl)c(Cl)cc3n2CC(=O)NN=Cc2cccc(OC)c2)cc1 [Compound 10c, 2-(5,6-Dichloro-2-(4-methoxyphenyl)-1H-benzo[d]imidazol-1-yl)-N'-(3-methoxybenzylidene)acetohydrazide] | – | – | – | – | – | 23.7% | 21.3% | 20.6% | 8.17% | 46.5% | 32.4% | 7.72% | 10.2% | –
7 | COc1ccc(C=NNC(=O)Cn2c(-c3ccc(OC)cc3)nc3cc(Cl)c(Cl)cc32)cc1 [Compound 10d, 2-(5,6-Dichloro-2-(4-methoxyphenyl)-1H-benzo[d]imidazol-1-yl)-N'-(4-methoxybenzylidene)acetohydrazide] | – | – | – | – | – | 47.2% | 36% | 10.9% | 42.7% | 58.7% | 50.5% | 34.9% | 32.3% | –
8 | COc1ccc(-c2nc3cc(Cl)c(Cl)cc3n2CC(=O)NN=Cc2cccc(OCC(=O)O)c2)cc1 [Compound 10e, 2-(3-((2-(2-(5,6-Dichloro-2-(4-methoxyphenyl)-1H-benzo[d]imidazol-1-yl)acetyl)hydrazono)methyl)phenoxy)acetic acid] | – (GI% < 5%) | – (GI% < 5%) | – (GI% < 5%) | 10.58% | – (GI% < 5%) | < 5% | < 5% | < 5% | < 5% | < 5% | < 5% | < 5% | < 5% | –
9 | COc1ccc(-c2nc3cc(Cl)c(Cl)cc3n2CC(=O)NN=Cc2ccc(OCC(=O)O)cc2)cc1 [Compound 10f, 2-(4-((2-(2-(5,6-Dichloro-2-(4-methoxyphenyl)-1H-benzo[d]imidazol-1-yl)acetyl)hydrazono)methyl)phenoxy)acetic acid] | – | – | – | – | – | < 5% | < 5% | < 5% | < 5% | < 5% | < 5% | < 5% | < 5% | –
10 | COC(=O)COc1cccc(C=NNC(=O)Cn2c(-c3ccc(OC)cc3)nc3cc(Cl)c(Cl)cc32)c1 [Compound 10g, Methyl-2-(3-((2-(2-(5,6-dichloro-2-(4-methoxyphenyl)-1H-benzo[d]imidazol-1-yl)acetyl)hydrazono)methyl)phenoxy)acetate] | – | – | – | – | – | < 5% | < 5% | 5.5% | < 5% | 21.3% | < 5% | 44% | < 5% | –
11 | CCOC(=O)C(C)Oc1ccc(C=NNC(=O)Cn2c(-c3ccc(OC)cc3)nc3cc(Cl)c(Cl)cc32)cc1 (centres unmarked) [Compound 10j, Ethyl-2-(4-((2-(2-(5,6-dichloro-2-(4-methoxyphenyl)-1H-benzo[d]imidazol-1-yl)acetyl) hydrazono)methyl)phenoxy)propanoate] | 25.42% | 5.72% | – (GI% < 5%) | 25.57% | – (GI% < 5%) | < 5% | < 5% | 15.2% | 8.58% | 41.3% | 11.2% | 15.4% | < 5% | –
12 | COc1ccc(-c2nc3cc(Cl)c(Cl)cc3n2CC(=O)NN=Cc2ccc(OC)c(O)c2)cc1 [Compound 10k, 2-(5,6-Dichloro-2-(4-methoxyphenyl)-1H-benzo[d]imidazol-1-yl)-N'-(3-hydroxy-4-methoxybenzylidene)acetohydrazide] | 10.22% | 33.65% | 8.94% | 55.02% | 23.45% | 24.8% | 40.1% | 12% | 22.1% | 59.9% | 40.3% | 32.2% | 6.39% | –
13 | COc1ccc(-c2nc3cc(Cl)c(Cl)cc3n2CC(=O)NN=Cc2ccc(O)c(OC)c2)cc1 [Compound 10l, 2-(5,6-Dichloro-2-(4-methoxyphenyl)-1H-benzo[d]imidazol-1-yl)-N'-(4-hydroxy-3-methoxybenzylidene)acetohydrazide] | – | – | – | – | – | 31% | 38.4% | 40.1% | < 5% | 58.1% | 37.3% | 18.2% | 9.29% | –
